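Values below derive from 48-hour exposures of cells grown in 96-well plates, with endpoints linearly interpolated between the two concentrations bracketing the appropriate inhibition level. GI50: concentration for 50% inhibition of growth.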 Activity calls are given as the source filed them. Rule as the data show it: active = GI50 up to about 1.1 µM and inactive = higher.
How the values were obtained:
Experiment in all cases: NCI anticancer screen, dose series, 48 h
786-0 = test system: 786-0
A498 = test system: A498
A549 = test system: A549
ACHN = test system: ACHN
CCRF-CEM = test system: CCRF-CEM
COLO 205 = test system: COLO 205
DU-145 = test system: DU-145
EKVX = test system: EKVX
HCC 2998 = test system: HCC 2998
HCT-116 = test system: HCT-116
HCT-15 = test system: HCT-15
HL-60 = test system: HL-60
HOP-62 = test system: HOP-62
HOP-92 = test system: HOP-92
HT-29 = test system: HT-29
IGROV-1 = test system: IGROV-1
K562 = test system: K562
KM12 = test system: KM12
LOX IMVI = test system: LOX IMVI
M14 = test system: M14
MCF7 = test system: MCF7
MDA-MB-231 = test system: MDA-MB-231
MDA-MB-435 = test system: MDA-MB-435
MDA-N = test system: MDA-N
MOLT-4 = test system: MOLT-4
Malme-3M = test system: Malme-3M
NCI-H226 = test system: NCI-H226
NCI-H23 = test system: NCI-H23
NCI-H460 = test system: NCI-H460
NCI-H522 = test system: NCI-H522
NCI/ADR-RES = test system: NCI/ADR-RES
OVCAR-3 = test system: OVCAR-3
OVCAR-4 = test system: OVCAR-4
OVCAR-5 = test system: OVCAR-5
OVCAR-8 = test system: OVCAR-8
PC-3 = test system: PC-3
RPMI-8226 = test system: RPMI-8226
RXF 393 = test system: RXF 393
SF-268 = test system: SF-268
SF-295 = test system: SF-295
SF-539 = test system: SF-539
SK-MEL-28 = test system: SK-MEL-28
SK-MEL-2 = test system: SK-MEL-2
SK-MEL-5 = test system: SK-MEL-5
SK-OV-3 = test system: SK-OV-3
SN12C = test system: SN12C
SNB-19 = test system: SNB-19
SNB-75 = test system: SNB-75
SR = test system: SR
SW-620 = test system: SW-620
T47D = test system: T47D
TK-10 = test system: TK-10
U-251 = test system: U-251
UACC-257 = test system: UACC-257
UACC-62 = test system: UACC-62
UO-31 = test system: UO-31
Hs-578T = test system: Hs-578T
CAKI-1 = test system: CAKI-1

Measured: GI50

c1ccc2c3nnc(c2c1)SCCCSc1nnc(c2ccccc12)SCCCS3
inactive: 786-0 54.1 µM | A498 61.1 µM | A549 58.5 µM | ACHN 72.3 µM | CCRF-CEM > 100 µM | COLO 205 > 100 µM | DU-145 33.7 µM | EKVX > 100 µM | HCC 2998 > 100 µM | HCT-116 > 100 µM | HL-60 > 100 µM | HOP-62 24.2 µM | HOP-92 32.9 µM | HT-29 > 100 µM | IGROV-1 47.2 µM | K562 > 100 µM | KM12 > 100 µM | LOX IMVI > 100 µM | M14 90.8 µM | MCF7 > 100 µM | MDA-MB-231 17.2 µM | MDA-MB-435 > 100 µM | MDA-N > 100 µM | MOLT-4 > 100 µM | Malme-3M 34.8 µM | NCI-H226 24.3 µM | NCI-H23 71.1 µM | NCI-H460 34.4 µM | NCI-H522 42.5 µM | NCI/ADR-RES 33.4 µM | OVCAR-3 25.8 µM | OVCAR-4 23.4 µM | OVCAR-5 > 100 µM | OVCAR-8 36.7 µM | PC-3 97.7 µM | RPMI-8226 > 100 µM | RXF 393 33.3 µM | SF-268 18.9 µM | SF-295 92.3 µM | SF-539 11 µM | SK-MEL-28 44.7 µM | SK-MEL-2 40.1 µM | SK-MEL-5 23 µM | SK-OV-3 > 100 µM | SN12C > 100 µM | SNB-19 28.8 µM | SNB-75 25.2 µM | SR 84.1 µM | SW-620 > 100 µM | T47D > 100 µM | TK-10 76.7 µM | U-251 76 µM | UACC-257 > 100 µM | UACC-62 31.7 µM | UO-31 > 100 µM
> 100 µM: HCT-15

O=C(O)CCCc1ccccc1 [SODIUM PHENYLBUTYRATE]
inactive: A498 144 µM | CCRF-CEM 63.5 µM | HCC 2998 144 µM | HOP-92 80.2 µM | Hs-578T 182 µM | K562 102 µM | KM12 126 µM | MOLT-4 117 µM | NCI-H460 118 µM | NCI-H522 110 µM | RXF 393 193 µM | SF-539 177 µM | SK-MEL-5 162 µM | SN12C 102 µM | UACC-62 172 µM | UO-31 189 µM
137 µM: HCT-15

C/C(=C\CCC1=CC(=O)OC1)CCC1C2C(=O)CC(C)[C@@]3(C)CC[C@]1(C)[C@@]23C (stereo partly drawn)
> 10 µM: HCT-15
inactive: 786-0 > 10 µM | A549 > 10 µM | CAKI-1 > 10 µM | CCRF-CEM > 10 µM | COLO 205 > 10 µM | DU-145 > 10 µM | EKVX > 10 µM | HCC 2998 > 10 µM | HL-60 5.85 µM | HOP-62 > 10 µM | HT-29 > 10 µM | IGROV-1 > 10 µM | K562 9.44 µM | KM12 > 10 µM | LOX IMVI > 10 µM | M14 > 10 µM | MCF7 > 10 µM | MDA-MB-231 > 10 µM | MDA-N > 10 µM | MOLT-4 > 10 µM | Malme-3M > 10 µM | NCI-H23 > 10 µM | OVCAR-8 > 10 µM | PC-3 > 10 µM | RPMI-8226 > 10 µM | RXF 393 > 10 µM | SF-268 > 10 µM | SF-295 > 10 µM | SK-MEL-28 > 10 µM | SK-MEL-5 > 10 µM | SK-OV-3 > 10 µM | SN12C > 10 µM | SNB-75 > 10 µM | SR 6.62 µM | SW-620 > 10 µM | T47D > 10 µM | TK-10 > 10 µM | UACC-257 > 10 µM | UACC-62 > 10 µM
